Entries after “also recorded” stand apart in the source; their conditions may differ.
Assays:
[1] = system: Mouse C57B1/6 Haematopoietic stem cells; assay: G0/G1 cell cycle of sorted haematopoietic stem cells, 2 h incubation (Example 17); assay type: cell-based; conditions: 2 hours incubation with growth factors
Procedure: Mouse C57B1/6 Haematopoietic stem cells were enriched with bone marrow cells by magnetic sorting. Only cells expressing surface tyrosine kinase were sorted. Cells were incubated for 2 hours with growth factors (IL-3 10 ng/ml, IL-6 10 ng/ml, SCF 50 ng/ml) and TRQ and its enantiomers, E1 and E2.
After 2 hours of incubation, cells were washed and incubated with […] for 30 minutes read by FACS scan.

[2] = system: Mouse medullary cells C57B1/6 expressing H4R; assay: Percentage of cells at G0/G1 phase, TRQ racemate and enantiomers with and without CB (Example 21); assay type: cell-based
Procedure: This experiment was conducted at two concentrations for all TRQ molecules (10 μM and 1 μM) in the presence and absence of CB (10 μM).
Using the assay described in Example 15, above, the effect of TRQ or CB on cells expressing H4R was tested. Mouse medullary cells C57B1/6 expressing H4R (50,000 cells/Petri dish) were incubated in a semi-solid media with haematopoietic growth factors such as IL-3 (10 ng/ml) for 7 days with a TRQ (racemic mixture of RR and SS isomers at 1 μM and 10 μM concentration); purified TRQ isomer E1 (10 μM and 1 μM concentration); purified TRQ isomer E2 (10 μM and 1 μM concentration) and CB (10 μM concentration). […] Similar results were shown with the purified TRQ isomers. In each experiment cells were incubated in the presence of growth factors (GF, FIG. 15).

[3] = target: T1, Serotonin Transporter (SERT) (Mus musculus, UniProt Q60857); assay: Serotonin uptake by bone marrow cells; assay type: cell-based, murine
T1 construct: from tissue; host or cells: total bone marrow cells

[4] = system: Mouse medullary cells C57B1/6 expressing H4R; assay: Proliferation of Colony Forming Cells (CFC) in semi-solid media; assay type: cell-based; conditions: 7 days; for inhibitory activity of cell proliferation (CFC): Example 20
Procedure: Using the assay described in Example 15, above, the effect of TRQ or CB on cells expressing H4R was tested. Mouse medullary cells C57B1/6 expressing H4R (50,000 cells/Petri dish) were incubated in a semi-solid media with haematopoietic growth factors (IL-3: 10 ng/ml) for 7 days with TRQ or CB.
Using the assay described in Example 15, above, the effect of TRQ or CB on cells expressing H4R was tested. Mouse medullary cells C57B1/6 expressing H4R (50,000 cells/Petri dish) were incubated in a semi-solid media with haematopoietic growth factors (IL-3: 10 ng/ml) for 7 days with a TRQ (racemic mixture of RR and SS isomers at 1 μM and 10 μM concentration); TRQ isomer E1 (10 μM concentration); TRQ isomer E2 (10 μM concentration) and CB (10 μM concentration).

[5] = target: T2, Organic Cation Transporter-3 (OCT-3) (Mus musculus, UniProt Q9WTW5); assay: Histamine uptake by bone marrow cells; assay type: cell-based, murine
T2 construct: from tissue; host or cells: total bone marrow cells
T2 sequence (Q9WTW5 1-551): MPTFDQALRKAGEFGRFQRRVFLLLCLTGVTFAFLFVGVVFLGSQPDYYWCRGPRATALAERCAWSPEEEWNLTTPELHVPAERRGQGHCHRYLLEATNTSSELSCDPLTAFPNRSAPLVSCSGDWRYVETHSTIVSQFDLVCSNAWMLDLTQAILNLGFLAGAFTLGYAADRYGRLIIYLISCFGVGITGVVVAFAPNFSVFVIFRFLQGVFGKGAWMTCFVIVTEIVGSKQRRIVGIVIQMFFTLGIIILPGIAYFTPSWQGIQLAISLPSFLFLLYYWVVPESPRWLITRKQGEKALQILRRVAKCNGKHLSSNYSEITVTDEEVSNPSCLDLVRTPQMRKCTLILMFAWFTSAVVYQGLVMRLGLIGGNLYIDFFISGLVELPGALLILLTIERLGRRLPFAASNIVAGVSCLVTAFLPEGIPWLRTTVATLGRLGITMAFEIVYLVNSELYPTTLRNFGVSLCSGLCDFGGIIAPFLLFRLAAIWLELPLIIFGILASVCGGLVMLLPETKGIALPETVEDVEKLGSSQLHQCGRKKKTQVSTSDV
Procedure: Cell cultures. Bone marrow (BM) cells were prepared as reported (Schneider, et al. J. Immunol. 139:3710-717) and adjusted to a final concentration of 2.5×10^6 per ml in culture medium (MEM) supplemented with 10% horse serum. Various doses (10^−5-10^−7 M) of Clobenpropit or Tritoqualine were added shortly before the addition of IL-3 (1 ng/ml), followed by a 24-h incubation at 37° C., 5% CO2.
Cytokine assays, measurement of histamine production, and uptake. IL-6 and IL-4 production was measured in cell supernatants recovered after a 24-h incubation. Histamine was quantified by an automated continuous flow spectrofluorometric technique (Schneider, et al. J. Immunol. 139:3710-717). For binding experiments, 10^6 total BM cells were plated in round-bottomed 96-well polypropylene plates (Costar). Unless stated otherwise, the cells were incubated (37° C., 5% CO2) for 3 h with 3 μCi/ml of [^3H]histamine dihydrochloride (2.5×10^−7 M; 12 Ci/mmol) in a final volume of 100 μl. Competition assays were performed as previously described (Corbel, S., et al. 1995. Blood. 86:531-539; Corbel, S., et al. 1995, FEBS Lett. 404:289-293). Each experiment was performed in triplicate, and histamine binding was calculated from total cpm after subtraction of nonspecific binding to filters.

[6] = 10 μM, compared to control (GF only)

T1 sequence (Q60857 whole entry): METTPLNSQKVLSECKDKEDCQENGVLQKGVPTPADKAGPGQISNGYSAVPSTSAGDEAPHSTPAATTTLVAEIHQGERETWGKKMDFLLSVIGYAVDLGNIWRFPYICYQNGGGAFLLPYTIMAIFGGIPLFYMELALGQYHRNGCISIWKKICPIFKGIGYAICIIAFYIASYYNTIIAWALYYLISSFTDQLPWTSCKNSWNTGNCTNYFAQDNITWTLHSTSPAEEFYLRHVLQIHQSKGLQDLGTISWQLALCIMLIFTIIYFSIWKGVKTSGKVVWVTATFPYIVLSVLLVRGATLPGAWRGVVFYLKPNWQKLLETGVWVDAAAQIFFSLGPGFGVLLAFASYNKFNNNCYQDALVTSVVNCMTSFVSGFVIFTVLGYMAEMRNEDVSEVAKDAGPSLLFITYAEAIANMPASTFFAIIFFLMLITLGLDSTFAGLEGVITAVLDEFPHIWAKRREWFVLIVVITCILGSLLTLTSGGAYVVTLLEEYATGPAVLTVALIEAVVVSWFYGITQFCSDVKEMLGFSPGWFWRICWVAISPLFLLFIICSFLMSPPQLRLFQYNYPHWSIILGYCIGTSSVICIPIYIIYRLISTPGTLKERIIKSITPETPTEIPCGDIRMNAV

SMILES | inhibition of G0/G1 phase [1] | percentage of cells at the G0/G1 phase / inhibitory activity of cell proliferation ([2]; 1 μM, listed as TRQ) | percentage of cells at the G0/G1 phase / inhibitory activity of cell proliferation ([2]; 1 μM, listed as racemic TRQ) | percentage of cells at the G0/G1 phase / inhibitory activity of cell proliferation [2, 6] | effect on biogenic monoamine uptake by SERT ([3]; listed as TRQ) | inhibition of proliferation of CFC ([4]; Example 16, 10 μM, IL-3 10 ng/ml, listed as TRQ) | inhibitory activity of cell proliferation (CFC) ([4]; 1 μM) | effect on biogenic monoamine uptake by OCT-3 ([5]; listed as TRQ) | percentage of cells at the G0/G1 phase / inhibitory activity of cell proliferation ([2]; 1 μM) | inhibition of serotonin uptake ([3]; 1 μM) | inhibition of serotonin uptake ([3]; 10 μM) | inhibitory activity of cell proliferation (CFC) ([4]; 10 μM) | inhibition of histamine uptake ([5]; 1 μM) | inhibition of histamine uptake ([5]; 10 μM)
CCOc1c(N)c2c(c(OCC)c1OCC)C(C1c3c(cc4c(c3OC)OCO4)CCN1C)OC2=O (racemic) [Tritoqualine, 7-Amino-4,5,6-triethoxy-3-(5,6,7,8-tetrahydro-4-methoxy-6-methyl-1,3-dioxolo[4,5-g]isoquinolin-5-yl) phthalide] | approximately 50% | also increased the percentage of cells at the G0/G1 phase | less inhibitory activity in comparison to 10 μM CB | also increased the percentage of cells at the G0/G1 phase | do not significantly alter; also recorded: does not affect | more potent inhibitor of cell proliferation than the Clobenpropit | less inhibitory activity in comparison to 10 μM CB | do not significantly alter; also recorded: does not affect |  |  |  |  |  | 
CCOc1c(N)c2c(c(OCC)c1OCC)[C@H]([C@H]1c3c(cc4c(c3OC)OCO4)CCN1C)OC2=O [E1] | approximately 50% |  |  | slightly more potent than isomer E2 |  |  |  |  | higher percentage of cells at the G0/G1 phase than the racemic TRQ | negligible | greatly reduced | slightly more potent than isomer E2 | negligible | greatly reduced
CCOc1c(N)c2c(c(OCC)c1OCC)[C@@H]([C@@H]1c3c(cc4c(c3OC)OCO4)CCN1C)OC2=O [E2] | 57% |  |  | exerted inhibitory activity of cell proliferation |  |  |  |  | higher percentage of cells at the G0/G1 phase than the racemic TRQ | negligible | greatly reduced | exerted inhibitory activity of cell proliferation | negligible | greatly reduced

From patent publication US8207188B2, “Treatment of diseases modulated by a H4 receptor agonist” (priority 2006, dated 2012)
